Source: patent publication US8148391B2 (Cephalon, Inc., priority 2006, dated 2012)
Where two headings read alike, the source gives them in different places. Blank lines part the entries; values can stand above or below the compound they belong to.

Columns and labels:
[1] = molecular target: T1, baculovirus-expressed ALK (Homo sapiens, UniProt Q9UM73); test: ALK Kinase Assay (ELISA-type, time-resolved fluorescence); assay type: biochemical
T1 construct: host or cells: baculovirus expression system
Outline: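 Wells were coated with phospholipase C-γ at 10 μg/mL in Tris-buffered saline. Adding 30 ng/ml enzyme started the reaction, which ran at 37° C for 15 minutes before Eu-N1 PT66 antibody detection. Percent inhibition versus log10 concentration gave IC50 by variable-slope fit.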

[2] = molecular target: T2, c-Met (cytoplasmic domain) (Homo sapiens, UniProt P08581); test: c-Met Kinase Assay (same methods as for ALK, with modifications); assay type: biochemical
T2 construct: 10 ng/mL c-Met (cytoplasmic domain, Invitrogen Corporation #PV3143); purchased Invitrogen Corporation PV3143
Outline: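 Steps: coat wells with PLC-γ (10 μg/mL, Tris-buffered saline); add 10 ng/mL c-Met cytoplasmic domain to initiate; incubate 15 min, 37° C; detect phosphoproduct via Eu-N1 PT66 antibody.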

[3] = 1 μM ATP (Km level), 30 ng/ml ALK, 37° C., 15 minutes, read-out: ALK Activity (ALK kinase inhibition, IC50 class)
[4] = 1 μM ATP (Km level), 10 ng/mL c-Met, read-out: cMet Activity (c-Met kinase inhibition, IC50 class)
[5] = ALK kinase inhibition, 1 μM ATP, read-out: ALK Activity
[6] = c-Met kinase inhibition, 1 μM ATP, read-out: cMet Activity
[7] = 1 μM ATP (Km level), read-out: ALK Activity (ALK Kinase Inhibition, IC50)
[8] = 1 μM ATP (Km level), read-out: cMet Activity (c-Met Kinase Inhibition, IC50)
[9] = ALK kinase inhibition, 1 μM ATP (Km level), read-out: ALK Activity
[10] = c-Met kinase inhibition, 1 μM ATP (Km level), read-out: cMet Activity

T2 sequence (P08581 956-1390 limits assumed): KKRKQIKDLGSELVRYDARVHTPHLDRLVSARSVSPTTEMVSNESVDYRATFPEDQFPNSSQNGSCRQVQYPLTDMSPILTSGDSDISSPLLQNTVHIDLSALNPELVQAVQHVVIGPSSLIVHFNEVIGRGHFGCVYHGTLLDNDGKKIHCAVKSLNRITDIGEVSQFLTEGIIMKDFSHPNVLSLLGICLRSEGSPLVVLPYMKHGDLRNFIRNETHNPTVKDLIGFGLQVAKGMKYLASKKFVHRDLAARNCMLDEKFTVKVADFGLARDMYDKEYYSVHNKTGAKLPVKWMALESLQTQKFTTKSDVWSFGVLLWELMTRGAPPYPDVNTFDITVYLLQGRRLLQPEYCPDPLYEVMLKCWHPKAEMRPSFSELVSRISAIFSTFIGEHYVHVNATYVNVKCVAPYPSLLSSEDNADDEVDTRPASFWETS
T1 sequence (Q9UM73 19-1620): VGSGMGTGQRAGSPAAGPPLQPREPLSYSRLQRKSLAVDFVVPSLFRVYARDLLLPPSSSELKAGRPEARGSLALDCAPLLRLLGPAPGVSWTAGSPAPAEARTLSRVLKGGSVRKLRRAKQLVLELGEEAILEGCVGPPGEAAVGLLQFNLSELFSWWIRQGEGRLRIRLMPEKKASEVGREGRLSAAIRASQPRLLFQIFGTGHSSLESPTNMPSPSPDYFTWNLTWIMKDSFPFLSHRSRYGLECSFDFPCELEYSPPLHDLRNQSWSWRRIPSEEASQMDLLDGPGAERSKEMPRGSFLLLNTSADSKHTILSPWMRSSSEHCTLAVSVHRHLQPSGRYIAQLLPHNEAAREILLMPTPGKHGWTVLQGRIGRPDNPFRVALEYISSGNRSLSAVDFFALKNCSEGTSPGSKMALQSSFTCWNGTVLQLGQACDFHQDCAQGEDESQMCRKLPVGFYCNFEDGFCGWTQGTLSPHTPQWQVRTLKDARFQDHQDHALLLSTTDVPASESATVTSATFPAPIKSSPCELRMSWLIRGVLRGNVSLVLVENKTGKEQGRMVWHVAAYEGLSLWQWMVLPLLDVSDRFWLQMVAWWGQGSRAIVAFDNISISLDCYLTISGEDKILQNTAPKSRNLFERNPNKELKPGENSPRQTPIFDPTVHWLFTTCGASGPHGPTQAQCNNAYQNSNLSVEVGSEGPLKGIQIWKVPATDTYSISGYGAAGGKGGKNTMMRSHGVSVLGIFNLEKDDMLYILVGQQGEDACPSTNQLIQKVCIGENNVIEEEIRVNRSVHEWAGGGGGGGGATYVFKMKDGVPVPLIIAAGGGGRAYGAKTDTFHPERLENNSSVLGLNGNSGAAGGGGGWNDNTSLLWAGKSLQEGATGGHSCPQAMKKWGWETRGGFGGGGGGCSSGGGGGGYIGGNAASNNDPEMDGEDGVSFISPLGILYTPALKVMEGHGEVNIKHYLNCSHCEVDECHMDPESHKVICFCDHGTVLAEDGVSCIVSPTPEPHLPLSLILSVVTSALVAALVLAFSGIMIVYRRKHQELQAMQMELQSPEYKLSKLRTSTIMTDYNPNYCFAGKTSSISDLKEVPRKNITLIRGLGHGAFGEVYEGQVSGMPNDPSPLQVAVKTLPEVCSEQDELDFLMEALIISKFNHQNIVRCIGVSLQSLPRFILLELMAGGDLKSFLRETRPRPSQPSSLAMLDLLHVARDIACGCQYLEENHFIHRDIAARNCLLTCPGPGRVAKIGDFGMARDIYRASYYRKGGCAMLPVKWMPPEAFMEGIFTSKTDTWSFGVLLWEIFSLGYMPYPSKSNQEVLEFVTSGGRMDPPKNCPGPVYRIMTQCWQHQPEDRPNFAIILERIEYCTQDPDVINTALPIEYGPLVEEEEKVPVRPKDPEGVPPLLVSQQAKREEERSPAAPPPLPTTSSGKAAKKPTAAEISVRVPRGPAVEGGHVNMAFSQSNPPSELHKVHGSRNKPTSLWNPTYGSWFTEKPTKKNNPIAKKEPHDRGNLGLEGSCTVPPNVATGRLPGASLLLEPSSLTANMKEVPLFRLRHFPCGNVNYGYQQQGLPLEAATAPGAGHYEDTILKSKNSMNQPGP

Compound: CCN1C(=O)C(NC(=O)C(F)(F)F)CCc2c1ccc(Nc1ncc(Cl)c(N[C@@H]3CCCC[C@H]3NS(C)(=O)=O)n1)c2OC (stereo partly drawn) [Example 1335, N-{7-[5-Chloro-4-((1R,2R)-2-methanesulfonylamino-cyclohexylamino)-pyrimidin-2-ylamino]-1-ethyl-6-methoxy-2-oxo-2,3,4,5-tetrahydro-1H-benzo[b]azepin-3-yl}-2,2,2-trifluoro-acetamide]
IC50 [1, 3]: < 100 nM
IC50 [2, 4]: > 10000 nM

Compound: CNC(=O)c1cccc(F)c1Nc1nc(Nc2ccc3c(c2)N(CCOC)C(=O)CCC3)ncc1C(F)(F)F [Example 926, 3-Fluoro-2-{2-[1-(2-methoxy-ethyl)-2-oxo-2,3,4,5-tetrahydro-1H-benzo[b]azepin-8-ylamino]-5-trifluoromethyl-pyrimidin-4-ylamino}-N-methyl-benzamide]
IC50 [1, 7]: < 100 nM
IC50 [2, 8]: < 100 nM

Compound: CNC(=O)c1cccc(F)c1Nc1nc(Nc2ccc3c(c2)N(C(C)=O)CCCC3(C)C)ncc1Cl [Example 1596, 2-[2-(1-Acetyl-5,5-dimethyl-2,3,4,5-tetrahydro-1H-benzo[b]azepin-8-ylamino)-5-chloro-pyrimidin-4-ylamino]-3-fluoro-N-methyl-benzamide]
IC50 [1, 5]: 100 to 1000 nM
IC50 [2, 6]: < 100 nM

Compound: CNC(=O)c1scc(C)c1Nc1nc(Nc2ccc3c(c2)-c2nccn2CCC3)ncc1Cl [Example 1846, 3-[5-Chloro-2-(5,6-dihydro-4H-1,3a-diaza-benzo[e]azulen-9-ylamino)-pyrimidin-4-ylamino]-4-methyl-thiophene-2-carboxylic acid methylamide]
IC50 [1, 5]: 1000 to 10000 nM
IC50 [2, 6]: 100 to 1000 nM

Compound: CS(=O)(=O)N[C@@H]1CCCC[C@H]1Nc1nc(Nc2ccc3c(c2)CCC(=O)CC3)ncc1Cl [Example 174, N-{(1R,2R)-2-[5-Chloro-2-(7-oxo-6,7,8,9-tetrahydro-5H-benzocyclohepten-2-ylamino)-pyrimidin-4-ylamino]-cyclohexyl}-methanesulfonamide]
IC50 [1, 9]: < 100 nM
IC50 [2, 10]: 100 to 1000 nM

Compound: COCCN1CCc2ccc(Nc3ncc(Cl)c(N[C@@H]4CCCC[C@H]4NS(=O)(=O)CC(F)(F)F)n3)cc2CC1 [Example 452, 2,2,2-Trifluoro-ethanesulfonic acid ((1R,2R)-2-{5-chloro-2-[3-(2-methoxy-ethyl)-2,3,4,5-tetrahydro-1H-benzo[d]azepin-7-ylamino]-pyrimidin-4-ylamino}-cyclohexyl)-amide]
IC50 [1, 9]: < 100 nM
IC50 [2, 10]: 1000 to 10000 nM

Compound: COc1c(Nc2ncc(Cl)c(N[C@H]3[C@@H](C(N)=O)[C@@H]4C=C[C@H]3C4)n2)ccc2c1CCC(NCC(F)(F)F)CC2 (stereo partly drawn) [Example 679, (1S,2S,3R,4R)-3-{5-Chloro-2-[1-methoxy-7-(2,2,2-trifluoro-ethylamino)-6,7,8,9-tetrahydro-5H-benzocyclohepten-2-ylamino]-pyrimidin-4-ylamino}-bicyclo[2.2.1]hept-5-ene-2-carboxylic acid amide]
IC50 [1, 7]: < 100 nM
IC50 [2, 8]: > 10000 nM

Compound: CCN1C(=O)CCC(C)(C)c2ccc(Nc3ncc(Cl)c(Nc4ccsc4C(=O)NC)n3)cc21 [Example 1597, 3-[5-Chloro-2-(1-ethyl-5,5-dimethyl-2-oxo-2,3,4,5-tetrahydro-1H-benzo[b]azepin-8-ylamino)-pyrimidin-4-ylamino]-thiophene-2-carboxylic acid methylamide]
IC50 [1, 5]: 1000 to 10000 nM
IC50 [2, 6]: 1000 to 10000 nM

Compound: CNC(=O)c1cccc(F)c1Nc1nc(Nc2ccc3c(c2)C(=O)NCCO3)ncc1Cl [Example 1222, 2-[5-Chloro-2-(5-oxo-2,3,4,5-tetrahydro-1,4-benzoxazepin-7-ylamino)-pyrimidin-4-ylamino]-3-fluoro-N-methyl-benzamide]
IC50 [1, 3]: 100 to 1000 nM
IC50 [2, 4]: 100 to 1000 nM

Compound: CNC(=O)c1sccc1Nc1nc(Nc2ccc3c(c2)NC(=O)C(NC(C)=O)CC3(C)C)ncc1Cl (centres unmarked) [Example 1291, 3-[2-(3-Acetylamino-5,5-dimethyl-2-oxo-2,3,4,5-tetrahydro-1H-1-benzazepin-8-ylamino)-5-chloro-pyrimidin-4-ylamino]-thiophene-2-carboxylic acid methylamide]
IC50 [1, 3]: 1000 to 10000 nM
IC50 [2, 4]: < 100 nM

Compound: CNC(=O)c1cccc(F)c1Nc1nc(Nc2ccc3c(c2)N(C(=O)CN2C(=O)c4ccccc4C2=O)CCCC3(C)C)ncc1Cl [Example 1616, 2-(5-Chloro-2-{1-[2-(1,3-dioxo-1,3-dihydro-isoindol-2-yl)-acetyl]-5,5-dimethyl-2,3,4,5-tetrahydro-1H-benzo[b]azepin-8-ylamino}-pyrimidin-4-ylamino)-3-fluoro-N-methyl-benzamide]
IC50 [1, 5]: 100 to 1000 nM
IC50 [2, 6]: 100 to 1000 nM

The next lines start with the values.

IC50 [1, 3]: < 100 nM
IC50 [2, 4]: > 10000 nM
Compound: CCCNC(=O)c1ccccc1Nc1nc(Nc2cc3c(cc2OC)CCN(CCOC)CC3)ncc1Cl [Example 1026, 2-{5-Chloro-2-[8-methoxy-3-(2-methoxy-ethyl)-2,3,4,5-tetrahydro-1H-benzo[d]azepin-7-ylamino]-pyrimidin-4-ylamino}-N-propyl-benzamide]

IC50 [1, 5]: < 100 nM
IC50 [2, 6]: 1000 to 10000 nM
Compound: CN([C@@H]1CCCC[C@H]1Nc1nc(Nc2ccc3c(c2)CCC(N2CCOCC2)CC3)ncc1Cl)S(C)(=O)=O (mixture of isomers) [Example 1681, N-{(1R,2R)-2-[5-Chloro-2-(7-morpholin-4-yl-6,7,8,9-tetrahydro-5H-benzocyclohepten-2-ylamino)-pyrimidin-4-ylamino]-cyclohexyl}-N-methyl-methanesulfonamide]

IC50 [1, 3]: < 100 nM
IC50 [2, 4]: 100 to 1000 nM
Compound: COCCN1CCc2ccc(Nc3ncc(Cl)c(Nc4c(F)cccc4C(N)=O)n3)cc2CC1 [Example 1257, 2-{5-Chloro-2-[3-(2-methoxy-ethyl)-2,3,4,5-tetrahydro-1H-3-benzazepin-7-ylamino]-pyrimidin-4-ylamino}-3-fluoro-benzamide]

IC50 [1, 9]: < 100 nM
IC50 [2, 10]: 1000 to 10000 nM
Compound: CNC(=O)c1ccccc1Nc1nc(Nc2cc3c(cc2OC)CCN(CCOC)CC3)ncc1Br [Example 198, 2-{5-Bromo-2-[8-methoxy-3-(2-methoxy-ethyl)-2,3,4,5-tetrahydro-1H-benzo[d]azepin-7-ylamino]-pyrimidin-4-ylamino}-N-methyl-benzamide]

IC50 [1, 5]: 1000 to 10000 nM
IC50 [2, 6]: 1000 to 10000 nM
Compound: COCCN1CCc2ccc(Nc3ncc(Cl)c(Nc4c(F)cccc4OCC(=O)OC)n3)cc2CC1 [Example 1727, (2-{5-Chloro-2-[3-(2-methoxy-ethyl)-2,3,4,5-tetrahydro-1H-benzo[d]azepin-7-ylamino]-pyrimidin-4-ylamino}-3-fluoro-phenoxy)-acetic acid methyl ester]

IC50 [1, 7]: < 100 nM
IC50 [2, 8]: > 10000 nM
Compound: COc1cc2c(cc1Nc1ncc(Cl)c(Nc3ccc(N4CCOCC4)cc3S(=O)(=O)N(C)C)n1)CCN(CC(=O)N(C)C)CC2 [Example 834, 2-{7-[5-Chloro-4-(2-dimethylsulfamoyl-4-morpholin-4-yl-phenylamino)-pyrimidin-2-ylamino]-8-methoxy-1,2,4,5-tetrahydro-benzo[d]azepin-3-yl}-N,N-dimethyl-acetamide]

IC50 [1, 7]: < 100 nM
IC50 [2, 8]: > 10000 nM
Compound: COc1cc2c(cc1Nc1ncc(Cl)c(Nc3ccc(Cl)cc3S(=O)(=O)N(C)C)n1)CCN(CC(=O)N(C)C)CC2 [Example 832, 2-{7-[5-Chloro-4-(4-chloro-2-dimethylsulfamoyl-phenylamino)-pyrimidin-2-ylamino]-8-methoxy-1,2,4,5-tetrahydro-benzo[d]azepin-3-yl}-N,N-dimethyl-acetamide]

IC50 [1, 3]: < 100 nM
IC50 [2, 4]: > 10000 nM
Compound: COc1cc2c(cc1Nc1ncc(Cl)c(Nc3ccccc3-n3cccn3)n1)CCN(CC(=O)N(C)C)CC2 [Example 1320, 2-{7-[5-Chloro-4-(2-pyrazol-1-yl-phenylamino)-pyrimidin-2-ylamino]-8-methoxy-1,2,4,5-tetrahydro-benzo[d]azepin-3-yl}-N,N-dimethyl-acetamide]

IC50 [1, 7]: 100 to 1000 nM
IC50 [2, 8]: > 10000 nM
Compound: COc1cc2c(cc1Nc1ncc(Cl)c(Nc3cc(Cl)ccc3OC)n1)CCN(CC(F)F)CC2 [Example 768, 5-Chloro-N*4*-(5-chloro-2-methoxy-phenyl)-N*2*-[3-(2,2-difluoro-ethyl)-8-methoxy-2,3,4,5-tetrahydro-1H-benzo[d]azepin-7-yl]-pyrimidine-2,4-diamine]

IC50 [1, 3]: < 100 nM
IC50 [2, 4]: > 10000 nM
Compound: CNC(=O)CN1CCc2cc(Nc3ncc(Cl)c(Nc4cc(Cl)ccc4OC)n3)c(OC)cc2CC1 [Example 1118, 2-{7-[5-Chloro-4-(5-chloro-2-methoxy-phenylamino)-pyrimidin-2-ylamino]-8-methoxy-1,2,4,5-tetrahydro-benzo[d]azepin-3-yl}-N-methyl-acetamide]

IC50 [1, 7]: < 100 nM
IC50 [2, 8]: 100 to 1000 nM
Compound: COc1cc2c(cc1Nc1ncc(Cl)c(Nc3ccccc3S(=O)(=O)N3CC[C@H](C)C3)n1)CCN(CC(=O)N(C)C)CC2 [Example 856, 2-(7-{5-Chloro-4-[2-((S)-3-methyl-pyrrolidine-1-sulfonyl)-phenylamino]-pyrimidin-2-ylamino}-8-methoxy-1,2,4,5-tetrahydro-benzo[d]azepin-3-yl)-N,N-dimethyl-acetamide]
